Reference: patent US8835458B2 (Hanmi Science Co., Ltd, priority 2010, dated 2014)
Counter-ions that a name gives are not always drawn.

Columns and labels:
[1] = system: MDA-MB-231 breast cancer cell lines; assay: Evaluation of inhibition on cell growth (MTS); assay type: cell-based; details: Homo sapiens, MDA-MB-231, 120 hours
Procedure: (§1) MDA-MB-231 breast cancer cell lines (ATCC #HTB-26) and BxPC-3 pancreas cancer cell lines (ATCC #CRL 1687), which have been reported to express XIAP, were obtained from ATCC (American type culture collection; Rockville, Md.). MDA-MB-231 cell lines were incubated in L-15 medium supplemented with 10% FBS and 1% penicillin/streptomycin (Gibco BRL) at a T-75 cm^2 growth flask. In addition, BxPC-3 cell lines were incubated in RPMI medium supplemented with 10% FBS and 1% penicillin/streptomycin. For experiments of toxicity to normal cells, fibroblasts Hs27 (ATCC #CRL 1634) and Balb/c3t3 (ATCC #CCL 163) were used. The various cell lines were transferred into 96-well plates at a density of 3,000˜5,000 cells/100 μL, and cultured for 24 hours under conditions of 37° C., 5% CO2, 95% air, and 100% relative humidity (MDA-MB-231 cells were cultured under atmospheric conditions). The cells were treated with 10 μM˜0.1 nM of test compounds, and MDA-MB-231, BxPC-3, and normal cell lines were cultured for 120, 96, and 72 hours, respectively.
(§2) Cell viabilities of MDA-MB-231 cell lines were measured at an absorbance of 490 nm using CellTiter 96™ AQueous One Solution Cell proliferation Assay (MTS, Promega), and cell viabilities of BxPC-3 and normal cell lines were measured by fixing cells with 10% TCA (trichloroacetic acid), staining with SRB (sulforhodamine B), and measuring at 540 nm. From the values, GI50 values in which test compounds reduce the growth of cancer cells by 50% were calculated. The growth rates of cancer cells were calculated from following Equation 1 or 2. [(Ti−Tz)/(C−Tz)]×100 (for Ti>=Tz) [Equation 1] [(Ti−Tz)/Tz]×100 (for Ti<Tz) [Equation 2] In Equations 1 and 2, Tz refers to a density of untreated cells, which is an absorbance in 0% cell growth groups. C refers to a density of cells cultured by adding only medium, and Ti refers to a density of cells treated with test compounds.
(§3) GI50 value is the concentration of a test compound when the value of Equation 1 is 50, which indicates the concentration of test compound required to inhibit the cancer cells by 50%. On each measurement, test compounds were compared with a control.
(§4) The activity value of each compound (GI50 value) was shown in Table 5, and an IAP antagonist was used as a control.
(§5) In the activity measurement on MDA-MB-231 breast cancer cell lines, the values were represented as “***” for 100 nM or less, “**” for over 100 nM to below 1,000 nM, and “*” for 1,000 nM or more. In the measurement on normal cell lines, Balb/C and Hs27, the values were represented as “+++” for 10,000 nM or more, “++” for over 5,000 nM to below 10,000 nM, and “+” for 5,000 nM or less.

[2] = Toxicity to normal cells (SRB); assay type: cell-based, human; details: human, Hs27 fibroblasts (normal cell line)
Procedure: as §1, §2, §3, §4, §5

GI50 [1]	Compound	GI50 at 72 h [2]
≤ 100 nM	CN[C@@H](C)C(=O)N[C@H](C(=O)N1CCC[C@H]1C(=O)Nc1cc2c(Nc3ccc(N4CCN(C)CC4)c(Cl)c3)ncnc2cc1OC)C(C)(C)C [Example 86, (S)—N-(4-((3-chloro-4-(4-methylpiperazin-1-yl)phenyl)amino)-7-methoxyquinazolin-6-yl)-1-((S)-3,3-dimethyl-2-((S)-2-(methylamino)propanamido)butanoyl)pyrrolidine-2-carboxamide hydrochloride]	> 10000 nM
≤ 100 nM	CN[C@@H](C)C(=O)N[C@H](C(=O)N1CCC[C@H]1C(=O)Nc1cc2c(Nc3ccc(CN4CCCCC4)cc3)ncnc2cc1OC)C(C)(C)C [Example 104, (S)-1-((S)-3,3-dimethyl-2-((S)-2-(methylamino)propanamido)butanoyl)-N-(7-methoxy-4-((4-(piperidin-1-ylmethyl)phenyl)amino)quinazolin-6-yl)pyrrolidine-2-carboxamide hydrochloride]	> 10000 nM
≤ 100 nM	CN[C@@H](C)C(=O)N[C@H](C(=O)N1CCC[C@H]1C(=O)Nc1cc2c(Nc3ccc(Cl)nc3)ncnc2cc1OC)C(C)(C)C [Example 79, (S)—N-(4-((6-chloropyridin-3-yl)amino)-7-methoxyquinazolin-6-yl)-1-((S)-3,3-dimethyl-2-((S)-2-(methylamino)propanamido)butanoyl)pyrrolidine-2-carboxamide hydrochloride]	> 10000 nM
≤ 100 nM	CN[C@@H](C)C(=O)N[C@H](C(=O)N1CCC[C@H]1C(=O)Nc1cc2c(NCC3CCCCC3)ncnc2cc1OC)C(C)(C)C [Example 77, (S)—N-(4-(cyclohexylmethyl)amino)-7-methoxyquinazolin-6-yl)-1-((S)-3,3-dimethyl-2-((S)-2-(methylamino)propanamido)butanoyl)pyrrolidine-2-carboxamide hydrochloride]	> 10000 nM
100 to 1000 nM	CN[C@@H](C)C(=O)N[C@H](C(=O)N1CCC[C@H]1C(=O)Nc1cc2c(Nc3ccc(Cn4ccnc4)cc3)ncnc2cc1OC)C(C)(C)C [Example 111, (S)—N-(4-((4-((1H-imidazol-1-yl)methyl)phenyl)amino)-7-methoxyquinazolin-6-yl)-1-((S)-3,3-dimethyl-2-((S)-2-(methylamino)propanamido)butanoyl)pyrrolidine-2-carboxamide hydrochloride]	> 10000 nM
≤ 100 nM	CN[C@@H](C)C(=O)N[C@H](C(=O)N1CCC[C@H]1C(=O)Nc1cc2c(NC(=O)Nc3ccccc3F)ncnc2cc1OC)C(C)(C)C [Example 89, (S)-1-((S)-3,3-dimethyl-2-((S)-2-(methylamino)propanamido)butanoyl)-N-(4-(3-(2-fluorophenyl)ureido)-7-methoxyquinazolin-6-yl)pyrrolidine-2-carboxamide hydrochloride]	> 10000 nM
100 to 1000 nM	CN[C@@H](C)C(=O)N[C@H](C(=O)N1CCC[C@H]1C(=O)Nc1cc2c(Nc3ccc4c(c3)CC(=O)N4)ncnc2cc1OC)C(C)(C)C [Example 94, (S)-1-((S)-3,3-dimethyl-2-((S)-2-(methylamino)propanamide)butanoyl)-N-(7-methoxy-4-((2-oxoindolin-5-yl)amino)quinazolin-6-yl)pyrrolidine-2-carboxamide hydrochloride]	> 10000 nM
≤ 100 nM	CN[C@@H](C)C(=O)N[C@H](C(=O)N1CCC[C@H]1C(=O)Nc1cc2c(Nc3ccc4c(=O)cc(C)oc4c3)ncnc2cc1OC)C(C)(C)C [Example 93, (S)-1-((S)-3,3-dimethyl-2-((S)-2-(methylamino)propanamide)butanoyl)-N-(7-methoxy-4-((2-methyl-4-oxo-4H-chromen-7-yl)amino)quinazolin-6-yl)pyrrolidine-2-carboxamide hydrochloride]	> 10000 nM
100 to 1000 nM	C#CCOc1ccc(Nc2ncnc3cc(OC)c(NC(=O)[C@@H]4CCCN4C(=O)[C@@H](NC(=O)[C@H](C)NC)C(C)(C)C)cc23)cn1 [Example 84, (S)-1-((S)-3,3-dimethyl-2-((S)-2-(methylamino)propanamido)butanoyl)-N-(7-methoxy-4-((6-(prop-2-yn-1-yloxy)pyridin-3-yl)amino)quinazolin-6-yl)pyrrolidine-2-carboxamide hydrochloride]	> 10000 nM
≤ 100 nM	CN[C@@H](C)C(=O)N[C@H](C(=O)N1CCC[C@H]1C(=O)Nc1cc2c(Nc3ccc(C4CCCN(C)C4)cc3)ncnc2cc1OC)C(C)(C)C (stereo partly drawn) [Example 109, (2S)-1-((S)-3,3-dimethyl-2-((S)-2-(methylamino)propanamido)butanoyl)-N-(7-methoxy-4-((4-(1-methylpiperidin-3-yl)phenyl)amino)quinazolin-6-yl)pyrrolidine-2-carboxamide hydrochloride]	> 10000 nM
≤ 100 nM	CN[C@@H](C)C(=O)N[C@H](C(=O)N1CCC[C@H]1C(=O)Nc1cc2c(Nc3ccc(C4CCN(C)CC4)cc3)ncnc2cc1OC)C(C)(C)C [Example 106, (S)-1-((S)-3,3-dimethyl-2-((S)-2-(methylamino)propanamido)butanoyl)-N-(7-methoxy-4-((4-(1-methylpiperidin-4-yl)phenyl)amino)quinazolin-6-yl)pyrrolidine-2-carboxamide hydrochloride]	> 10000 nM
≤ 100 nM	CN[C@@H](C)C(=O)N[C@H](C(=O)N1CCC[C@H]1C(=O)Nc1cc2c(Nc3ccc(OCc4ccccn4)c(Cl)c3)ncnc2cc1OC)C(C)(C)C [Example 102, (S)—N-(4-((3-chloro-4-(pyridin-2-ylmethoxy)phenyl)amino)-7-methoxyquinazolin-6-yl)-1-((S)-3,3-dimethyl-2-((S)-2-(methylamino)propanamido)butanoyl)pyrrolidine-2-carboxamide hydrochloride]	> 10000 nM
≤ 100 nM	CN[C@@H](C)C(=O)N[C@H](C(=O)N1CCC[C@H]1C(=O)Nc1cc2c(Nc3ccc(N4CCC(N5CCCCC5)CC4)cc3)ncnc2cc1OC)C(C)(C)C [Example 103, (S)—N-(4-((4-([1,4′-bipiperidine]-1′-yl)phenyl)amino)-7-methoxyquinazolin-6-yl)-1-((S)-3,3-dimethyl-2-((S)-2-(methylamino)propanamido)butanoyl)pyrrolidine-2-carboxamide hydrochloride]	> 10000 nM
100 to 1000 nM	CN[C@@H](C)C(=O)N[C@H](C(=O)N1CCC[C@H]1C(=O)Nc1cc2c(NC3CCC(N4CCC(C)CC4)CC3)ncnc2cc1OC)C(C)(C)C (stereo partly drawn) [Example 107, (S)-1-((S)-3,3-dimethyl-2-((S)-2-(methylamino)propanamido)butanoyl)-N-(7-methoxy-4-((4-(4-methylpiperidin-1-yl)cyclohexyl)amino)quinazolin-6-yl)pyrrolidine-2-carboxamide hydrochloride]	> 10000 nM
≤ 100 nM	CN[C@@H](C)C(=O)N[C@H](C(=O)N1CCC[C@H]1C(=O)Nc1cc2c(Nc3ccc(N4CCCCC4)c(F)c3)ncnc2cc1OC)C(C)(C)C [Example 85, (S)-1-((S)-3,3-dimethyl-2-((S)-2-(methylamino)propanamido)butanoyl)-N-(4-((3-fluoro-4-(piperidin-1-yl)phenyl)amino)-7-methoxyquinazolin-6-yl)pyrrolidine-2-carboxamide hydrochloride]	> 10000 nM
≤ 100 nM	CN[C@@H](C)C(=O)N[C@H](C(=O)N1CCC[C@H]1C(=O)Nc1cc2c(Nc3ccc(N4CCOCC4)cc3)ncnc2cc1OC)C(C)(C)C [Example 90, (S)-1-((S)-3,3-dimethyl-((S)-2-(methylamino)propanamido)butanoyl)-N-(7-methoxy-4-((4-morpholinophenyl)amino)quinazolin-6-yl)pyrrolidine-2-carboxamide hydrochloride]	> 10000 nM
≤ 100 nM	CN[C@@H](C)C(=O)N[C@H](C(=O)N1CCC[C@H]1C(=O)Nc1cc2c(Nc3ccc(-n4ccnc4)cc3)ncnc2cc1OC)C(C)(C)C [Example 88, (S)—N-(4-((4-(1H-imidazol-1-yl)phenyl)amino)-7-methoxyquinazolin-6-yl)-1-((S)-3,3-dimethyl-2-((S)-2-(methylamino)propanamido)butanoyl)pyrrolidine-2-carboxamide hydrochloride]	> 10000 nM
